Results on 15 molecules are retold here after patent publication US3998843A (priority 1972, dated 1976).

A word on the Ki: it is a measure of affinity in units of concentration, obtained from inhibition or displacement. Broadly, the LD50 is the dose expected to kill half of the subjects tested. A word on the IC50: it is the midpoint of a concentration-inhibition curve. Low readings indicate greater potency, high ones weaker potency.

SMILES strings stand for the structures.

Data set [1] concerns acetylcholinesterase. As to conditions: after dosage; as thought by some workers; cited from earlier work.
The target of data set [2] is T1, bovine erythrocyte acetylcholinesterase (Bos taurus, UniProt P23795).
T1 construct: bovine erythrocyte acetylcholinesterase as enzyme; from tissue; host or cells: bovine erythrocytes
T1 sequence (P23795 other isoform, or with tags, fused parts or gaps): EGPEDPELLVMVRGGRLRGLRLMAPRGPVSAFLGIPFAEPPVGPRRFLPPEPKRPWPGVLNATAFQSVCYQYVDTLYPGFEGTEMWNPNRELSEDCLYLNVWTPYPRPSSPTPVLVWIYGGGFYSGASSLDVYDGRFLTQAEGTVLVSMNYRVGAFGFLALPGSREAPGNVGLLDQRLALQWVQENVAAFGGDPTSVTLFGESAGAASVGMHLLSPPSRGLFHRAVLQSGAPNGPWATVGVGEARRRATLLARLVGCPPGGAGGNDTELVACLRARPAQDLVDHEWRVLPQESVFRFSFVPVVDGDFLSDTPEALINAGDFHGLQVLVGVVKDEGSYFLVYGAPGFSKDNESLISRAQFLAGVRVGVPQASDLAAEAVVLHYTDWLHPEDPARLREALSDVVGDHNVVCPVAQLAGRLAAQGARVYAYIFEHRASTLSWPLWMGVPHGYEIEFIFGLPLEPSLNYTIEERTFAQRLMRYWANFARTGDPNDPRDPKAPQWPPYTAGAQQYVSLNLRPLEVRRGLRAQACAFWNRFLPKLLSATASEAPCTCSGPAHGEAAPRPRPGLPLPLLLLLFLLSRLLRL
Kind of data set: In vitro anticholinesterase test, method of Ellmann (acetylthiocholine substrate, Lineweaver-Burk, Ki). It is filed as biochemical. As to conditions: for Ki: acetylthiocholine substrate, bovine erythrocyte acetylcholinesterase, competitive conditions; for antiacetylcholinesterase potency versus neostigmine: from Ki, in words. The protocol: In vitro testing of compounds was carried out by the method of Ellmann, Biochem. Pharmacol. 7, 88 (1961) with acetylthiocholine as substrate and bovine erythrocyte acetylcholinesterase as enzyme. Reaction rates were determined with and without inhibitor under competitive conditions (i.e. the substrate was added before the inhibitor). Results were plotted by the Lineweaver-Burk method and these plots were used to determine inhibitor constants (Ki values).

Data set [3] is described as follows: Intravenous LD50 in rats and therapeutic ratio. It is filed as in vivo, rat. As to conditions: for margin of safety when used in man: expected from the rat therapeutic ratios; for selectivity ratio / LD50: rat, in vivo, rats; for selectivity ratio: iv, ratio of LD50 to the dose giving maximum tubocurarine reversal; for LD50: intravenous. From the text: The intravenous LD50 has been determined in rats for the three above mentioned drugs and from the results obtained the therapeutic ratios (defined as the ratio of LD50 to the dose giving maximum tubocurarine reversal) have been calculated: […]

The test system of data set [4] is constriction of the pupil in the eye of the mouse. Kind of data set: Mouse miosis test of Schneider. It is filed as in vivo. As to conditions: for Potency, Mouse Miosis: SC, relative to neostigmine (1.0); for in vivo potency versus neostigmine: mouse miosis, in words. On the procedure: (§1) In vivo testing was carried out employing the mouse miosis test of Schneider R, J. Pharm. Pharmacol. 22, 298 (1970) in which antiacetylcholinesterases induce constriction of the pupil in the eye of the mouse, and the rat chromodacryorrhoea test of Burgen A.S.V.Brit.J.Pharmacol. 4; 185 (1949) in which antiacetylcholinesterases potentiate the ability of acetylcholine to provoke red tears in rats. Both tests enable the potency and duration of action of antiacetylcholinesterases to be assessed.

The subject of data set [5] is tubocurarine-induced muscle blockade. Kind of data set: Reversal of tubocurarine-induced muscle blockade in cats (anterior tibialis twitch). It is filed as in vivo. As to conditions: Felis catus, iv; Cat; injected into the femoral vein; read-out: Dose necessary to produce maximum anti-curare effect. From the text: (§2) D-Tubocurarine is used clinically to produce relaxation of skeletal muscles in patients undergoing certain surgical procedures. Following the completion of surgery antiacetylcholinesterases are used to reverse this relaxation. Experiments have been carried out to measure the ability of the compounds of the invention to reverse tubocurarine-induced muscle blockade in rats and cats.
(§3) The method was based on that of Zaimis E, J. Physiol 122, 238 (1953) in which animals were anaesthetised and the left hind limb clamped ridigly in a horizontal position with the tendon of the anterior tibialis muscle attached to a flat spring myograph. Twitches of the anterior tibialis muscle were induced by supramaximal electrical stimulation of the tibial nerve and recorded on a strip recorder. Drugs dissolved in 0.9% saline were injected into the femoral vein. During an experiment the dose of tubocurarine necessary to establish a partial (80 to 90%) blockade of neuromuscular transmission was established an anticholinisterase drugs were subsequently injected at the time of maximum blockade. Recovery achieved after the administration of an antiacetylcholinesterase was compared with the recovery after tubocurarine alone.

The test system is the same in data set [6]. Kind of data set: Reversal of tubocurarine-induced muscle blockade in rats (anterior tibialis twitch). It is filed as in vivo. As to conditions: iv; Rat; injected into the femoral vein; read-out: Dose necessary to produce maximum anti-curare effect.
Source text: as §2, §3

The subject of another data set is muscarinic activity. Kind of data set: Muscarinic activity in animal experimentation. It is filed as in vivo.
Data set [7] concerns the target T2, acetylcholinesterase (Homo sapiens, UniProt P22303).
T2 construct: washed human red cells as the source of acetylcholinesterase; from tissue; host or cells: washed human red cells
Kind of data set: In vitro anticholinesterase activity, Michel method (acetylcholine substrate, washed human red cells as enzyme source). It is filed as biochemical. The protocol:
Screening for anticholinesterase activity was carried out in vitro by the Michel method (J. Lab. Clin. Med 34, 1564, (1949)) using acetylcholine as substrate, washed human red cells as the source of acetylcholinesterase.

Data set [8] deals with ability of acetylcholine to provoke red tears in rats. Kind of data set: Rat chromodacryorrhoea test of Burgen. It is filed as in vivo. As to conditions: for Potency, Rat chromod.: IP, relative to neostigmine (1.0); for in vivo potency versus neostigmine: rat chromodacryorrhoea, in words. The protocol: as §1
Data set [9] relates to neuromuscular effects of tubocurarine. Kind of data set: Reversal of tubocurarine neuromuscular effects in man (human volunteers; anterior compartment leg muscle twitch). It is filed as in vivo. As to conditions: for recovery from tubocurarine block: I.V. in saline, 0.6 to 0.8 mg methobromide or 2.5 mg neostigmine (after 1.2 mg atropine). The protocol:
Substantiation for some of these estimates has come from the results of tests carried out in human volunteers. In these experiments contractions of the anterior compartment leg muscles were induced by supramaximal stimulation of the lateral popliteal nerve. After recording a period of control activity, tubocurarine was administered as a slow I.V. infusion until the muscle twitch height was reduced to approximately 50% of control levels. Three minutes later the anticholinesterase was administered (I.V. in saline) and the twitch height monitored until control levels were re-attained.

Data set [10] has the same test system. As to conditions: in the clinic; cited from earlier work.

T2 sequence (P22303 other isoform, or with tags, fused parts or gaps): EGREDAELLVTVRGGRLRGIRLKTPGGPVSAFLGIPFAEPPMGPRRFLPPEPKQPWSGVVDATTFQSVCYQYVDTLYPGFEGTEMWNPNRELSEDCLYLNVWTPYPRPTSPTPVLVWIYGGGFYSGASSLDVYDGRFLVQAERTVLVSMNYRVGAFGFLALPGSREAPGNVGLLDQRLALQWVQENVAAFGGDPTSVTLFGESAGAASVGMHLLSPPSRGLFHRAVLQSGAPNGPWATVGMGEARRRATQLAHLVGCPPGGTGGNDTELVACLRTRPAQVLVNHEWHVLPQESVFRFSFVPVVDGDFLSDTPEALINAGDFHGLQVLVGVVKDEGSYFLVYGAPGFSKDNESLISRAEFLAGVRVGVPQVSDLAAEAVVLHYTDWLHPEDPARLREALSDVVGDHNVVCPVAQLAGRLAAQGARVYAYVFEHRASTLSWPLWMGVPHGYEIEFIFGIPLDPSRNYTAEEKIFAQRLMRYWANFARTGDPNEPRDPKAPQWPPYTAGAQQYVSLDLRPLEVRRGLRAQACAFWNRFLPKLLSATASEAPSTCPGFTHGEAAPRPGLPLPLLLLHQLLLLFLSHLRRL

For the molecule `CN(C)C(=O)Oc1ccc[n+](C)c1` [Pyridostigmine, reference compound], the “reversal of enzyme inhibition” value in the data set on acetylcholinesterase [1] was “relatively slow reversal”. Besides, affinity in data set [2] was put at a Ki of 4800 nM.
Take `C[N+]1([C@H]2CCCC[C@H]2c2cccc(O)c2)CCCC1` (stereo in doubt) [Example 11, cis-2-(3-hydroxyphenyl)-1-pyrrolidinocyclohexane methiodide]: in [3], the “margin of safety when used in man” value is “wide margin of safety”, the selectivity ratio is 15 and the LD50 was 0.18 mg/kg. In addition, in data set [4], the “Potency, Mouse Miosis” value was found to be 9.6 and the “in vivo potency versus neostigmine” value was “more potent than neostigmine”. In data set [5], the ED (maximum effect) came out at 0.03 mg/kg. For the same molecule, in data set [2], the Ki came out at 7.3 nM and the “antiacetylcholinesterase potency versus neostigmine” value is “more potent than neostigmine”. Also, the ED (maximum effect) in [6] was determined as 0.025 mg/kg. In the data set with muscarinic activity, the muscarinic activity result is given as “less muscarinic activity”. This molecule also had a half-maximal inhibitory concentration (IC50) against acetylcholinesterase [7] of 20 nM. For the same molecule, in [8], the “Potency, Rat chromod.” value worked out at 6.0 and the “in vivo potency versus neostigmine” value is on record as “more potent than neostigmine”.
`Nc1c2c(nc3ccccc13)CCCC2` [Tacrine, reference compound]: the “Potency, Mouse Miosis” value in data set [4] stood at 0.21. In addition, the “Potency, Rat chromod.” value in data set [8] was determined as 0.38.
For the molecule `C[N+]1([C@@H]2CCCC[C@@H]2c2cccc(O)c2)CCCC1` (stereo in doubt) [Example 2, cis-2-(3-Hydroxyphenyl)-1-pyrrolidinocyclohexane Methobromide], in data set [9] (0.6 to 0.8 mg I.V. versus 2.5 mg neostigmine with 1.2 mg atropine), the “incidence of muscarinic effects” value is “less than that produced by the neostigmine/atropine combination”. For the same molecule, the “recovery from tubocurarine block” value in data set [9] was “Prompt recovery”. In addition, the 50% inhibitory concentration (IC50) on acetylcholinesterase [7] was 20 nM.
Regarding `C[N+]1([C@@H]2CCCC[C@@H]2c2ccc(Cl)cc2)CCCC1` (relative stereo) [Example 10], on acetylcholinesterase [7], the half-maximal inhibitory concentration (IC50) was 200 nM.
`C[N+]1([C@@H]2CCCC[C@H]2c2cccc(O)c2)CCCC1` (relative stereo) [trans-2-(3-hydroxyphenyl)-1-pyrrolidinocyclohexane methiodide, reference compound] returned a half-maximal inhibitory concentration (IC50) at acetylcholinesterase [7] of 100000 nM. Besides, on acetylcholinesterase [7] (Example 11 versus corresponding trans compound), the “activity of cis compound relative to trans compound (fold as active)” value was about 5000 ×.
With `CCCC(=O)Oc1cccc([C@@H]2CCCC[C@@H]2[N+]2(C)CCCC2)c1` (relative stereo) [Example 5, cis-2-(3-Butyryloxyphenyl)-1-pyrrolidinocyclohexane methiodide], inhibition against acetylcholinesterase [7] was half-maximal at 20 nM (IC50).
Take `C[N+]1([C@@H]2CCC[C@@H]2c2cccc(O)c2)CCCC1` (relative stereo) [Example 14]: the IC50 at acetylcholinesterase [7] is 100 nM.
In the case of `C[N+]1([C@@H]2CCCC[C@@H]2c2ccccc2)CCCC1` (relative stereo) [Example 1, cis-2-Phenyl-1-pyrrolidinocyclohexane Methiodide], in data set [3], the “margin of safety when used in man” value is recorded as “wide margin of safety”, the selectivity ratio turned out to be 7.2 and the 50% lethal dose (LD50) is 1.5 mg/kg. In [4], the “Potency, Mouse Miosis” value is listed as 1.6 and the “in vivo potency versus neostigmine” value is reported as “more potent than neostigmine”. The ED (maximum effect) in data set [5] turned out to be 0.1 mg/kg. Also, in data set [2], the Ki stood at 7.7 nM and the “antiacetylcholinesterase potency versus neostigmine” value is “more potent than neostigmine”. Besides, the ED (maximum effect) in [6] was 0.1 mg/kg. Besides, in the data set on muscarinic activity, the muscarinic activity entry is “less muscarinic activity”. At acetylcholinesterase [7], the IC50 was 200 nM. Besides, in data set [8], the “Potency, Rat chromod.” value was 2.0 and the “in vivo potency versus neostigmine” value is reported as “more potent than neostigmine”.
`C[N+]1([C@@H]2CCCC[C@@H]2c2cc(O)ccc2O)CCCC1` (relative stereo) [Example 16] came in with a half-inhibitory concentration (IC50) on acetylcholinesterase [7] of 10 nM.
Take `CN(C)C(=O)Oc1cccc([N+](C)(C)C)c1` [Neostigmine, reference compound]: the LD50 in data set [3] amounted to 0.2 mg/kg. Moreover, in data set [9], the “recovery from tubocurarine block” value is reported as “Prompt recovery”. For the same molecule, the “reversal of enzyme inhibition” value in the data set with acetylcholinesterase [1] was “relatively slow reversal”. For the same molecule, the “clinical intravenous dose to reverse the neuromuscular effects of tubocurarine” value in [10] was 2.5 to 3.0 mg. Further, the ED (maximum effect) in [5] and in data set [6] was 0.1 mg/kg throughout. This molecule also registered a Ki in [2] of 30 nM.
As for `Cc1ccc([C@H]2CCCC[C@H]2[N+]2(C)CCCC2)cc1` (relative stereo) [Example 7], at acetylcholinesterase [7], the half-inhibitory concentration (IC50) amounted to 1000 nM.
Regarding `CC[N+](CC)(CCNC(=O)C(=O)NCC[N+](CC)(CC)Cc1ccccc1Cl)Cc1ccccc1Cl` [Ambenonium, reference compound], the “Potency, Mouse Miosis” value in data set [4] came out at 0.06. Moreover, the “Potency, Rat chromod.” value in data set [8] stood at 0.03.
`Cc1cccc([C@H]2CCCC[C@H]2[N+]2(C)CCCC2)c1` (relative stereo) [Example 8] had a half-inhibitory concentration (IC50) against acetylcholinesterase [7] of 6000 nM.
Take `CC[N+](C)(C)c1cccc(O)c1` [Edrophonium, reference compound]: the “Potency, Mouse Miosis” value in data set [4] worked out at 0.04. The “Potency, Rat chromod.” value in data set [8] was determined as 0.09.
